A word on the Kd: it is a measure of binding affinity in units of concentration. Low readings indicate higher affinity, high ones lower affinity.

The results in this text go back to PMC4785361, “Insight into determinants of substrate binding and transport in a multidrug efflux protein” (Scientific Reports, 2016).

The target of this experiment is T1, MdtM (Escherichia coli, UniProt P39386).
T1 construct: full-length 410 residues, pBAD/Myc-His A vector (C-terminal Myc-His tag), overproduced in E. coli LMG194, purified in DDM detergent
Nature of the experiment: biochemical. In kind it is binding. From the text:
intrinsic tryptophan fluorescence quenching on MdtM

T1 sequence (P39386 whole entry): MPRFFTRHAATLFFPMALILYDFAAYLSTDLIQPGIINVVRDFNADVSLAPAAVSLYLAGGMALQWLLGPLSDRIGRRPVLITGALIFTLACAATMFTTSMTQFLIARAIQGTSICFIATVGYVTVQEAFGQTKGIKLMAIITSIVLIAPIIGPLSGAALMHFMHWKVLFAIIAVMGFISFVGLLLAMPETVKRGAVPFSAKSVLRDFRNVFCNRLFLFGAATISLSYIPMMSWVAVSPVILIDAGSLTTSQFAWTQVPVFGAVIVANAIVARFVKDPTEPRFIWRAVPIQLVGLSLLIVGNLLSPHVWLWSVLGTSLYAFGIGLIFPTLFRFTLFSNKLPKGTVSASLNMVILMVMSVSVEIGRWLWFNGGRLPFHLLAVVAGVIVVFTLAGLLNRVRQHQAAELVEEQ

In the case of `c1ccc([P+](c2ccccc2)(c2ccccc2)c2ccccc2)cc1` [TPP+], binding was put at a Kd of 400 ± 145 nM.
Compound `O=C(N[C@H](CO)[C@H](O)c1ccc([N+](=O)[O-])cc1)C(Cl)Cl` [chloramphenicol, 2,2-dichloro-N-[2-hydroxy-1-hydroxymethyl-2-(4-nitro-phenyl)-ethyl]-acetamide] had a Kd of 22 ± 4 nM.
